Experimental findings from patent publication US20240270751A1, “Pyrazolopyridinone Compounds” (BeiGene Ltd., priority 2021, published 2024) are described below.

The target in one test is DGKζ (Homo sapiens (Human), UniProt Q13574). Description: Biochemical DGK IC50 assay, DGKζ ADP-Glo assay. The settings on record: 0.5 nM enzyme, 140 μM ATP, 80 μM DAG; read-out: DGKζ ADP-Glo assay IC50. The essentials: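 ADP formation measured by ADP-Glo luminescence, with test compounds at final 1.55–10000 nM or 23.3–150000 nM. Enzyme: purified full-length human DGKζ from Sf9 insect cells; substrate: DAG/PS micelles in 25 mM HEPES pH 7.0, 0.5 mM EDTA, octyl glucoside.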
Sequence of DGKζ (Q13574 other isoform, or with tags, fused parts or gaps): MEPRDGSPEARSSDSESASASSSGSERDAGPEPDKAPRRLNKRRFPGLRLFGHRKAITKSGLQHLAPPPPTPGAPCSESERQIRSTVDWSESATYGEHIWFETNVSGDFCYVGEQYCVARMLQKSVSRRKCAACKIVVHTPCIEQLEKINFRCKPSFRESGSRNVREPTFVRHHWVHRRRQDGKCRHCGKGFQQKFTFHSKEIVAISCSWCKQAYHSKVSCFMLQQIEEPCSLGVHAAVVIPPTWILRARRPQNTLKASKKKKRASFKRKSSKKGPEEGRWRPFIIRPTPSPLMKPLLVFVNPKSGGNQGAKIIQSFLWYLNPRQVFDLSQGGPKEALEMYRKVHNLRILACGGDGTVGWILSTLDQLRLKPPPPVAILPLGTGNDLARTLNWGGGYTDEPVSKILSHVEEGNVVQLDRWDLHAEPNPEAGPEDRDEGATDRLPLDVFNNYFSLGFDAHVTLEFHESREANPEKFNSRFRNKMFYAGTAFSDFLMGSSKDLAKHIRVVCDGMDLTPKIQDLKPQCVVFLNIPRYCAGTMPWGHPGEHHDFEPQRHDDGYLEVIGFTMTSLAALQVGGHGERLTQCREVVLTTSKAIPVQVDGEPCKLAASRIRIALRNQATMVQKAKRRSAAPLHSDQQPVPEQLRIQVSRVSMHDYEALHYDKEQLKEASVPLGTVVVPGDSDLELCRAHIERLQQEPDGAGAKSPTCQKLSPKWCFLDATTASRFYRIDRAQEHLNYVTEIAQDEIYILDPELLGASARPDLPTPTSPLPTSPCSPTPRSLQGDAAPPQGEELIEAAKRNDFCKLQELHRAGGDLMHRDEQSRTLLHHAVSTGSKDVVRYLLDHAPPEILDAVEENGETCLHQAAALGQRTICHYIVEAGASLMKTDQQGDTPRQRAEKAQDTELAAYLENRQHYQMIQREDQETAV

The target in the next test is DGKα (Homo sapiens (Human), UniProt P23743). Description: Biochemical DGK IC50 assay, DGKα ADP-Glo assay. The settings on record: 7.5 nM enzyme, 140 μM ATP, 80 μM DAG. The essentials:
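Compounds at final 1.55˜10000 nM or 23.3˜150000 nM were tested against full-length DGKα. Substrate was lipid micelles of DAG and PS resuspended in 25 mM HEPES pH 7.0 with 0.5 mM EDTA and 160 mM octyl β-D-glucopyranoside. ADP formed was detected by ADP-Glo.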
For orientation: ADP-Glo first removes unused ATP, then detects ADP through luciferase.

Sequence of DGKα (P23743 whole entry): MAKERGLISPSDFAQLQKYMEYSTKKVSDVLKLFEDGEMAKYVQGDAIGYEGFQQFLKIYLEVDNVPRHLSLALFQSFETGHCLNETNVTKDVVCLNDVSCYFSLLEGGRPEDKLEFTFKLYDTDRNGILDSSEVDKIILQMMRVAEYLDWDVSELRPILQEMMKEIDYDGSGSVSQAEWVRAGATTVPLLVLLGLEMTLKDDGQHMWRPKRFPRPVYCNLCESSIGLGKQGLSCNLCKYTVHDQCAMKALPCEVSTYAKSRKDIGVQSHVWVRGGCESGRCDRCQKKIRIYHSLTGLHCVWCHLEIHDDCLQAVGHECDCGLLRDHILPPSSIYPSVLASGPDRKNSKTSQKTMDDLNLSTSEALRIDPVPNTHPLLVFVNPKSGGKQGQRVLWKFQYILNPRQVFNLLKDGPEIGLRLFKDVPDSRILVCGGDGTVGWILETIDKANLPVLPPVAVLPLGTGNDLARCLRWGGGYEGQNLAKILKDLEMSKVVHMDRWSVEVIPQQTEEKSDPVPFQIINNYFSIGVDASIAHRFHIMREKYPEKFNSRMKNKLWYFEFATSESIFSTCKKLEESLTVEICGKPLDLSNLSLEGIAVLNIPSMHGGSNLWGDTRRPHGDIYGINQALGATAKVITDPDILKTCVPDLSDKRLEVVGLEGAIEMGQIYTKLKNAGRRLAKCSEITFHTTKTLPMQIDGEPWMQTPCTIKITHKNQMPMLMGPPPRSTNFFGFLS

By IC50 is commonly meant the concentration that gives 50% inhibition. Consider `CCCn1c(C(C)N2C[C@H](CC)N(c3cc(=O)n(C)c4cn(CC#N)nc34)C[C@H]2CC)nc2ccccc21` (stereo partly drawn) [Compound A192, 2-(7-((2S,5R)-2,5-diethyl-4-(1-(1-propyl-1H-benzo[d]imidazol-2-yl)ethyl)piperazin-1-yl)-4-methyl-5-oxo-4,5-dihydro-2H-pyrazolo[4,3-b]pyridin-2-yl)acetonitrile], for which the IC50 on DGKζ was 59 nM; against DGKα, more than 10000 nM.
In the same order, the values of `CC[C@H]1CN(C(C)c2ccc3cccnc3c2)[C@H](CC)CN1c1cc(=O)n(C)c2cn(CC#N)nc12` (stereo partly drawn) [Compound A61] are 8.6 nM and 177 nM.
The matching figures for `CC(c1ccc2nccnc2c1)N1C[C@H](C)N(c2cc(=O)n(C)c3cn(CC(N)=O)nc23)C[C@H]1C` (stereo partly drawn) [Compound A6]: more than 150000 nM and more than 150000 nM.
In the same order, the values of `CC[C@H]1CN(C(C)c2c(F)cc(F)cc2OC)[C@H](CC)CN1c1cc(=O)n(C)c2cn(CC#N)nc12` (single isomer, unassigned) [Compound A201a] are 43 nM and more than 10000 nM.
As for `CC[C@H]1CN(C(C)c2ccccc2C(F)(F)F)[C@H](CC)CN1c1cc(=O)n(C)c2cn(CC#N)nc12` (single isomer, unassigned) [Compound A197a], the IC50 on DGKζ is 2050 nM; on DGKα, more than 10000 nM.
Take `CC[C@H]1CN(C(C)c2ccc(F)cc2OC)[C@H](CC)CN1c1cc(=O)n(C)c2cn(CC#N)nc12` (single isomer, unassigned) [Compound A71a]: the half-maximal inhibitory concentration (IC50) at DGKζ worked out at 2100 nM; against DGKα, 42000 nM.
The matching figures for `C[C@@H]1CN(c2cc(=O)n(C)c3cn(CC#N)nc23)[C@@H](C)CN1[C@@H](C)c1ccc2c(c1)OC(C)(C)CO2` [Compound A46b]: 21 nM and 2570 nM.
The matching figures for `COC(=O)Cn1cc2c(n1)c(N1C[C@@H](C)N(C(C)c3ccc4nccnc4c3)C[C@@H]1C)cc(=O)n2C` (stereo partly drawn) [Compound A7]: 1030 nM and more than 10000 nM.
In the same order, the values of `CC[C@H]1CN(C(C)c2ccc(C(F)(F)F)cn2)[C@H](CC)CN1c1cc(=O)n(C)c2cn(CC#N)nc12` (single isomer, unassigned) [Compound A348b] are 138 nM and 9 nM.
`[2H]C([2H])([2H])c1cnc2ccc(C(C)N3C[C@H](C)N(c4cc(=O)n(C)c5cn(CC#N)nc45)C[C@H]3C)cc2n1` (single isomer, unassigned) [Compound A313b]: the IC50 was 51 nM on DGKζ and 61600 nM at DGKα.
The matching figures for `CC(c1ccc(F)cc1C(F)(F)F)N1C[C@H](C)N(c2cc(=O)n(C)c3cn(CC#N)nc23)C[C@H]1C` (single isomer, unassigned) [Compound A236a]: more than 10000 nM and more than 10000 nM.
Regarding `CC(c1ccc2c(c1)OC(C)(C)CO2)N1C[C@H](C)N(c2cc(=O)n(C)c3cn(CC#N)nc23)C[C@H]1C` (single isomer, unassigned) [Compound A46f], the values for the IC50 at DGKζ and against DGKα were 2140 nM and 59600 nM, respectively.
In the same order, the values of `CC(c1ccc(Cl)cc1C(F)(F)F)N1C[C@H](C)N(c2cc(=O)n(C)c3cn(CC#N)nc23)C[C@H]1C` (stereo partly drawn) [Compound A251] are 3270 nM and more than 10000 nM.
In the same order, the values of `C=C(C)n1cc2c(n1)c(N1C[C@@H](CC)N(C(C)c3ccc4nccnc4c3)C[C@@H]1CC)cc(=O)n2C` (stereo partly drawn) [Compound A25, 7-((2S,5R)-2,5-diethyl-4-(1-(quinoxalin-6-yl)ethyl)piperazin-1-yl)-4-methyl-2-(prop-1-en-2-yl)-2,4-dihydro-5H-pyrazolo[4,3-b]pyridin-5-one] are 510 nM and 54 nM.
As for `CC(c1ccc2ncc(C(F)F)nc2c1)N1C[C@H](C)N(c2cc(=O)n(C)c3cn(CC#N)nc23)C[C@H]1C` (stereo partly drawn) [Compound A311, 2-(7-((2S,5R)-4-(1-(3-(difluoromethyl)quinoxalin-6-yl)ethyl)-2,5-dimethylpiperazin-1-yl)-4-methyl-5-oxo-4,5-dihydro-2H-pyrazolo[4,3-b]pyridin-2-yl)acetonitrile], the IC50 was found to be 41 nM on DGKζ and 6630 nM against DGKα.
As to `CC[C@H]1CN(C(C)c2ccc(OC(C)C)cc2)[C@H](CC)CN1c1cc(=O)n(C)c2cn(CC#N)nc12` (stereo partly drawn) [Compound A160], the values for the IC50 at DGKζ and on DGKα were 247 nM and 52 nM, respectively.
Take `CC[C@H]1CN(C(C)c2ccc3nccnc3c2)[C@H](CC)CN1c1cc(=O)n(CC(F)(F)F)c2cn(CC#N)nc12` (stereo partly drawn) [Compound A123, 2-(7-((2S,5R)-2,5-diethyl-4-(1-(quinoxalin-6-yl)ethyl)piperazin-1-yl)-5-oxo-4-(2,2,2-trifluoroethyl)-4,5-dihydro-2H-pyrazolo[4,3-b]pyridin-2-yl)acetonitrile]: the half-inhibitory concentration (IC50) turned out to be 1740 nM at DGKζ and 6030 nM on DGKα.
Consider `CC(c1ccc2nccnc2c1)N1C[C@H](C)N(c2cc(=O)n(C)c3cn(C(C)C)nc23)C[C@H]1C` (stereo partly drawn) [Compound A18], for which the IC50 at DGKζ stood at 3700 nM; on DGKα, 5700 nM.
In the same order, the values of `CC[C@H]1CN(C(C)c2ccc(F)cc2C(F)(F)F)[C@H](CC)CN1c1cc(=O)n(C)c2c[nH]nc12` (single isomer, unassigned) [Compound A275a] are 7110 nM and more than 10000 nM.
In the case of `[2H]C([2H])([2H])n1c(=O)cc(N2C[C@@H](CC)N(C(C)c3ccc(F)cc3C(F)(F)F)C[C@@H]2CC)c2nn(CC#N)cc21` (stereo partly drawn) [Compound A276, 2-(7-((2S,5R)-2,5-diethyl-4-(1-(4-fluoro-2-(trifluoromethyl)phenyl)ethyl)piperazin-1-yl)-4-(methyl-d3)-5-oxo-4,5-dihydro-2H-pyrazolo[4,3-b]pyridin-2-yl)acetonitrile], the concentration for half-maximal inhibition (IC50) was 131 nM on DGKζ and more than 150000 nM against DGKα.
In the same order, the values of `COC(=O)C1CN(c2cc(=O)n(C)c3cn(CC#N)nc23)CCN1[C@H](C)c1ccc2nccnc2c1` (single isomer, unassigned) [Compound A173b] are more than 10000 nM and more than 10000 nM.
The matching figures for `Cc1c2c(nn1CC#N)c(N1C[C@@H](C)N(C(C)c3ccc4nccnc4c3)C[C@@H]1C)cc(=O)n2C` (stereo partly drawn) [Compound A209, 2-(7-((2S,5R)-2,5-dimethyl-4-(1-(quinoxalin-6-yl)ethyl)piperazin-1-yl)-3,4-dimethyl-5-oxo-4,5-dihydro-2H-pyrazolo[4,3-b]pyridin-2-yl)acetonitrile]: 50 nM and 21600 nM.
As for `CC[C@H]1CN(C(C)c2nc3ccc(C(F)(F)F)cc3n2CC)[C@H](CC)CN1c1cc(=O)n(C)c2cn(CC#N)nc12` (single isomer, unassigned) [Compound A204b], the IC50 on DGKζ is 298 nM; against DGKα, more than 10000 nM.
Take `CC[C@H]1CN(C(C)c2ccc(CN3C[C@@H](C)O[C@@H](C)C3)cc2)[C@H](CC)CN1c1cc(=O)n(C)c2cn(CC#N)nc12` (stereo partly drawn) [Compound A343, 2-(7-((2S,5R)-4-(1-(4-(((2S,6R)-2,6-dimethylmorpholino)methyl)phenyl)ethyl)-2,5-diethylpiperazin-1-yl)-4-methyl-5-oxo-4,5-dihydro-2H-pyrazolo[4,3-b]pyridin-2-yl)acetonitrile]: the figures for the IC50 at DGKζ and on DGKα were 675 nM and 246 nM, respectively.
For the compound `C[C@@H]1CN(c2cc(=O)n(C)c3cn(CC#N)nc23)[C@@H](C)CN1[C@H](C)c1ccc2nccnc2c1` [Compound A2b, 2-(7-((2S,5R)-2,5-dimethyl-4-((R)-1-(quinoxalin-6-yl)ethyl)piperazin-1-yl)-4-methyl-5-oxo-4,5-dihydro-2H-pyrazolo[4,3-b]pyridin-2-yl)acetonitrile], the half-maximal inhibitory concentration (IC50) at DGKζ was 13000 nM; on DGKα it was 19000 nM.
In the same order, the values of `CC[C@H]1CN(C(C)c2ccc(C)c(C)n2)[C@H](CC)CN1c1cc(=O)n(C)c2cn(CC#N)nc12` (stereo partly drawn) [Compound A363] are 55 nM and 166 nM.
For `CC[C@H]1CN(C(C)c2ccc(C(C)(C)C#N)cc2F)[C@H](CC)CN1c1cc(=O)n(C)c2cn(CC#N)nc12` (stereo partly drawn) [Compound A345, 2-(4-(1-((2R,5S)-4-(2-(cyanomethyl)-4-methyl-5-oxo-4,5-dihydro-2H-pyrazolo[4,3-b]pyridin-7-yl)-2,5-diethylpiperazin-1-yl)ethyl)-3-fluorophenyl)-2-methylpropanenitrile], the IC50 on DGKζ stood at 205 nM; against DGKα it was 852 nM.
In the same order, the values of `CC[C@H]1CN(C(C)c2ccc(F)cn2)[C@H](CC)CN1c1cc(=O)n(C)c2cn(CC#N)nc12` (single isomer, unassigned) [Compound A74b] are 5450 nM and 187 nM.
The matching figures for `CC[C@H]1CN(C(C)c2ccc3ccncc3c2)[C@H](CC)CN1c1cc(=O)n(C)c2cn(CC#N)nc12` (stereo partly drawn) [Compound A62, 2-(7-((2S,5R)-2,5-diethyl-4-(1-(isoquinolin-7-yl)ethyl)piperazin-1-yl)-4-methyl-5-oxo-4,5-dihydro-2H-pyrazolo[4,3-b]pyridin-2-yl)acetonitrile]: 48 nM and 40 nM.
In the same order, the values of `C[C@@H]1CN(c2cc(=O)n(C)c3c(F)nn(CC#N)c23)[C@@H](C)CN1[C@H](C)c1ccc2nccnc2c1` [Compound A258, 2-(7-((2S,5R)-2,5-dimethyl-4-((R)-1-(quinoxalin-6-yl)ethyl)piperazin-1-yl)-3-fluoro-4-methyl-5-oxo-4,5-dihydro-1H-pyrazolo[4,3-b]pyridin-1-yl)acetonitrile, or 2-(7-((2S,5R)-2,5-dimethyl-4-((S)-1-(quinoxalin-6-yl)ethyl)piperazin-1-yl)-3-fluoro-4-methyl-5-oxo-4,5-dihydro-1H-pyrazolo[4,3-b]pyridin-1-yl)acetonitrile] are more than 10000 nM and more than 10000 nM.
